From patent US20110319339A1, “NEUROTENSIN-DERIVED BRANCHED PEPTIDES AND USES THEREOF” (priority 2008, published 2011)
pEC50: −log10 of the molar value.

Experiments:
[1] = tested on: colon tumors and healthy tissues from the same patient; assay: Binding of fluorophore-conjugated NT4 to human tumor surgical samples versus healthy tissue, confocal fluorescence; details: any tissue sample (colon and pancreas)
Method: Each step was followed by washing with TBS. […] Each step was followed by washing with TBS. […] Analogue monomeric peptides were assayed for comparison. […] All images were processed using the ImageJ software (NIH).

[2] = tested on: HT-29, PANC-1 and PC-3 tumor cell lines; assay: Cytotoxicity of drug-conjugated NT4, statements on the three cell lines together; format: cell-based, human
Method: Cells were grown without changing the medium for days.
5-FdU, Monastrol and CBTST were fast released from the adducts. […] The additional washing was performed in order to avoid free drug to diffuse inside the cells during the following six days.

[3] = tested on: PC-3; assay: Cytotoxicity of drug-conjugated NT4, MTT growth inhibition; format: cell-based, human
Method: (§1) Cells were grown without changing the medium for days. Growth inhibition was assessed by 3-(4,5-dimethylthiazol-2-yl)-2,5-diphenyltetrazolium bromide. EC50 values were calculated by non-linear regression analysis using GraphPaD prism 3.02 software.

[4] = Classification of functionalized branched peptides as fast or slow/non releasing; details: ability to release the functional unit from the carrier peptide
[5] = tested on: HT-29; assay: Cytotoxicity of drug-conjugated NT4, MTT growth inhibition; format: cell-based, human; details: HT29, best EC50 values, 0.15 to 30 μmol/L
Method: as §1

[6] = tested on: HT29 tumors; assay: Tumor growth reduction in mice; format: in vivo, CD-1 female nude mice; details: given six times, dose of 3 μg/kg, time-frame of 10 days
Method: In details, CD-1 female nude mice (Charles River Laboratories, Inc.), 5 to 6 weeks of age (mean weight, 20 g), were injected s.c. in the right flank with 1×10^6 HT29 cells. When tumors reached a diameter of 3 to 4 mm (5 days after tumor inoculation) mice were randomly divided into groups (four mice per group) and repeatedly injected in the tail vein (0, 30, 70, 140, 190, 240 hours post first injection) with 500 μL of the following solutions in 0.9% NaCl: (a) 1 mg/mL NT(1-13)4-5FdU (3.05 μmol/kg); (b) 30 μg/mL 5FdU (3.05 μmol/kg); and (c) 0.9% NaCl.
Tumor volumes were measured daily with a caliper using the following formula: volume=length*width2*π/6. 21 days after tumor inoculation, ie 6 days after the last treatment, mice were sacrificed, tumors, removed and weighted. […] Statistical analysis was done using Student's t test (p<0.05).

[7] = target: NT receptor
[8] = compared to NT

NT(1-13)4
binding to tissue sample compared to NT(8-13)4 [1]: identical

NT(8-13)-betaAla-K(PEG-Monastrol) [NT4(8-13)-Mon]
activity compared to the parent free drug [2]: no improvement

NT(8-13)-betaAla-K(PEG-6-mercaptopurine) [NT4(8-13)-6-MP]
activity compared to the parent free drug [2]: no improvement

CN(Cc1cnc2nc(N)nc(N)c2n1)c1ccc(C(=O)N[C@@H](CCC(=O)O)C(=O)O)cc1 [MTX, methotrexate]
sensitivity of PC-3 cells to the drug [3]: not affected

NT(8-13)4-betaAla-K(PEG-Chlorambucil) [NT4(8-13)-CLB]
releasing class of the adduct [4]: slow releasing | pEC50 [5]: 5.72

O=C(O)CCCc1ccc(N(CCCl)CCCl)cc1 [CLB, chlorarnbucil]
sensitivity of PC-3 cells to the drug [3]: not affected

O=c1[nH]c(=O)n([C@H]2C[C@H](O)[C@@H](CO)O2)cc1F [5-FdU, 5-fluoro-2′-deoxyuridine]
sensitivity of PC-3 cells to the drug [3]: not affected | inhibition of tumor growth [6]: 10%

NT(8-13)-betaAla-K(PEG-Tirapazamine) [NT4(8-13)-TPZ]
releasing class of the adduct [4]: slow releasing | pEC50 ([3]; PC3, best EC50 values, 0.15 to 30 μmol/L, MTT): 6.85

NT4-peg-Biotin
IC50 values ([7]; compared to that of NT4): comparable

NT(8-13)4-beta-Ala-Biotin
binding activity to NT receptor ([7]; compared to NT(8-13)4): loose binding activity

QHWSYGLRPG [LHRH]
in vitro binding profiles [8]: lower

NT(8-13)-betaAla-K(PEG-5-fluorodeoxyuridine) [NT4(8-13)-5-FdU]
pEC50 [5]: 6.48
